One test has as its target hA3AR (Homo sapiens (Human), UniProt P0DMS8). The experiment in a line: Radioligand binding at hA3AR, CHO cell membranes, [125I]I-AB-MECA.
The next test deals with hA2AAR (Homo sapiens (Human), UniProt P29274). The experiment in a line: Radioligand binding at hA2AAR, HEK293 cell membranes, [3H]CGS21680. Particulars: for inhibition at 10 µM: read-out: hA2AAR % inhibition; for hA2AAR % inhibition: inhibition of binding at 10 μM.
The target in another test is hA1AR (Homo sapiens (Human), UniProt P30542). The test can be described thus: Radioligand binding at hA1AR, CHO cell membranes, [3H]R-PIA. Particulars: for inhibition at 10 µM: read-out: hA1AR % inhibition; for hA1AR % inhibition: inhibition of binding at 10 μM.
Sequence of hA1AR (P30542 whole entry): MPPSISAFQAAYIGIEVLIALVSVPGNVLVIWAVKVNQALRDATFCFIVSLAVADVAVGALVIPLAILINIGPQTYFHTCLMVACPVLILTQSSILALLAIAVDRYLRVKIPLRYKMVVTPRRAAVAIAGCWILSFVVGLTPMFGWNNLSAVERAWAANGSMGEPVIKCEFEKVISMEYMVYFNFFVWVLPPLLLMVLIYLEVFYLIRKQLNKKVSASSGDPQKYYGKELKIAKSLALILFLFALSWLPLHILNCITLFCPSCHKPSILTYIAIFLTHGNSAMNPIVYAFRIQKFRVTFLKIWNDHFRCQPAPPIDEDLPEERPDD
The subject of test [1] is chronic constriction injury model of neuropathic pain. The experiment in a line: CCI model of neuropathic pain, reversal of mechano-allodynia. It counts as in vivo, mice. To be noted: for Time of peak protection / Max. effect Emax (% ± SEM) / Effect at 3 h (% ± SEM): 3 μmol/kg p.o., mice; for Time of peak protection / Max. effect Emax (% ± SEM): ipsilateral hind paw; for Efficacy in reversing NP in vivo (of full reversal at peak effect): CCI model.

Here are results for 25 molecules from patent publication US10577368B2 (The United States of America, as represented by the …, priority 2013, dated 2020).

Some results are limits rather than exact numbers.

Sequence of hA2AAR (P29274 whole entry): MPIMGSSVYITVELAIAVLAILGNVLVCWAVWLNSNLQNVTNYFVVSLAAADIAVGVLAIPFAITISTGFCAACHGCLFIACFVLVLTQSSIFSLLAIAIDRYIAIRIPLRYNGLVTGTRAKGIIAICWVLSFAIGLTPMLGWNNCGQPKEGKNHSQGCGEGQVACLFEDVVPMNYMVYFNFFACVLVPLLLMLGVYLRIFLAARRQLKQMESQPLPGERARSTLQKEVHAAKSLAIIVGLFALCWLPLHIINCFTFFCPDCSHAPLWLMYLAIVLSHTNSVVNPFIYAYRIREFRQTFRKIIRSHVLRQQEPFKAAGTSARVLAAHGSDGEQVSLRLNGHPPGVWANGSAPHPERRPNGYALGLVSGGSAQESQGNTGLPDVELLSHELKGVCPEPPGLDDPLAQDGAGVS
Sequence of hA3AR (P0DMS8 whole entry): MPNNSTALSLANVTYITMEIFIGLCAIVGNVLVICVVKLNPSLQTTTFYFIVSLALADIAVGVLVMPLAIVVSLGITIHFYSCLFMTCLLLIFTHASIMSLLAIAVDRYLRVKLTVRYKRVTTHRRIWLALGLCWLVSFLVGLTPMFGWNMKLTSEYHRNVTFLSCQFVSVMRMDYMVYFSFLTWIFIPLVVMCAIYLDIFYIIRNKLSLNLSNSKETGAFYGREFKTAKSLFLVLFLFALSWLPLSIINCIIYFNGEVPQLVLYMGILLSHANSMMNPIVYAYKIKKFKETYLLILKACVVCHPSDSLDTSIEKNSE

Usually Ki stands for a dissociation constant, usually derived from enzyme kinetics or from competition with a known ligand. Read a low Ki as a stronger hold on the target. As to `CNC(=O)[C@@]12C[C@@H]1[C@@H](n1cnc3c(NC4CC4c4cccc(C)c4)nc(C#Cc4ccccc4)nc31)[C@H](O)[C@@H]2O` (mixture of isomers) [Compound 22, (1S,2R,3S,4R,5S)-2,3-Dihydroxy-N-methyl-4-(2-(phenylethynyl)-6-((2-(m-tolyl)cyclopropyl)amino)-9H-purin-9-yl)bicyclo[3.1.0]hexane-1-carboxamide], the Ki on hA3AR was determined as 17.6 ± 1.3 nM.

What is called inhibition is the relative decrease from the control value, in per cent. In turn, `CNC(=O)[C@@]12C[C@@H]1[C@@H](n1cnc3c(NC4CC4c4cccc(F)c4)nc(C#Cc4ccccc4)nc31)[C@H](O)[C@@H]2O` (mixture of isomers) [Compound 23, (1S,2R,3S,4R,5S)-4-(6-((2-(3-Fluorophenyl)cyclopropyl)amino)-2-(phenylethynyl)-9H-purin-9-yl)-2,3-dihydroxy-N-methylbicyclo[3.1.0]hexane-1-carboxamide] showed a Ki at hA3AR of 16.5 ± 1.9 nM. In addition, at hA2AAR, the inhibition at 10 µM stood at 1%.

Consider `CNC(=O)[C@@]12C[C@@H]1[C@@H](n1cnc3c(NC4CC4c4cccc(Cl)c4)nc(C#Cc4ccccc4)nc31)[C@H](O)[C@@H]2O` (mixture of isomers) [Compound 24, (1S,2R,3S,4R,5S)-4-(6-((2-(3-Chlorophenyl)cyclopropyl)amino)-2-(phenylethynyl)-9H-purin-9-yl)-2,3-dihydroxy-N-methylbicyclo[3.1.0]hexane-1-carboxamide], for which, at hA3AR, the inhibitory constant (Ki) was determined as 11.2 ± 4.2 nM.

For `CNC(=O)[C@@]12C[C@@H]1[C@@H](n1cnc3c(NC4CC4c4cccc(Br)c4)nc(C#Cc4ccccc4)nc31)[C@H](O)[C@@H]2O` (mixture of isomers) [Compound 25, (1S,2R,3S,4R,5S)-4-(6-((2-(3-Bromophenyl)cyclopropyl)amino)-2-(phenylethynyl)-9H-purin-9-yl)-2,3-dihydroxy-N-methylbicyclo[3.1.0]hexane-1-carboxamide], the affinity at hA3AR, expressed as Ki, was 14.5 ± 1 nM.

As for `CNC(=O)[C@@]12C[C@@H]1[C@@H](n1cnc3c(NC4CC4c4ccc(F)c(F)c4)nc(C#Cc4ccccc4)nc31)[C@H](O)[C@@H]2O` (mixture of isomers) [Compound 26, (1 S,2R,3S,4R,5S)-4-(6-((2-(3,4-Difluorophenyl)cyclopropyl)amino)-2-(phenylethynyl)-9H-purin-9-yl)-2,3-dihydroxy-N-methylbicyclo[3.1.0]hexane-1-carboxamide], affinity at hA3AR was put at a Ki of 20.2 ± 2.1 nM. The Ki values of the last two molecules are within 1.5-fold of each other.

For the molecule `CNC(=O)[C@@]12C[C@@H]1[C@@H](n1cnc3c(NC)nc(C#Cc4cccc(C(F)(F)F)c4)nc31)C(O)C2O` (stereo in doubt) [Compound 14, (1 S,2S,3R,4R,5S)-2,3-Dihydroxy-N-methyl-4-(6-(methylamino)-2-((3-(trifluoromethyl)phenyl)ethynyl)-9H-purin-9-yl)bicyclo[3.1.0]hexane-1-carboxamide], the inhibition at 10 µM on hA2AAR turned out to be 12 ± 6%; at hA1AR, 10%. Further, in test [1], the “Time of peak protection” value lay in the range of 0.5 to 1 h.

For `CNC(=O)[C@@]12C[C@@H]1[C@@H](n1cnc3c(C)nc(C#Cc4ccc(C(C)(C)C)cc4)nc31)C(O)C2O` (stereo in doubt) [Compound 41, (1S,2S,3R,4R,5S)-4-(2-((4-(tert-butyl)phenyl)ethynyl)-6-methyl-9H-purin-9-yl)-2,3-dihydroxy-N-methylbicyclo[3.1.0]hexane-1-carboxamide], the values for the inhibition at 10 µM on hA2AAR and on hA1AR were 34 ± 7% and 15 ± 6%, respectively.

As to `CNC(=O)[C@@]12C[C@@H]1[C@@H](n1cnc3c(NC)nc(C#Cc4cccnn4)nc31)[C@H](O)[C@@H]2O` [Compound 10, (1S,2R,3S,4R,5S)-2,3-Dihydroxy-N-methyl-4-(6-(methylamino)-2-(pyridazin-3-ylethynyl)-9H-purin-9-yl)bicyclo[3.1.0]hexane-1-carboxamide], the inhibition at 10 µM at hA2AAR was 13 ± 8%. The inhibition at 10 µM at hA1AR was found to be 11%. Moreover, in test [1], the “Time of peak protection” value amounted to 0.5 h and the “Efficacy in reversing NP in vivo (of full reversal at peak effect)” value (“Efficacy in reversing NP in vivo” below) is “less than full efficacy”.

For the molecule `CNC(=O)[C@@]12C[C@@H]1[C@@H](n1cnc3c(NC)nc(C#Cc4cccnc4)nc31)[C@H](O)[C@@H]2O` [Compound 15, (1S,2R,3S,4R,5S)-2,3-Dihydroxy-N-methyl-4-(6-(methylamino)-2-(pyridin-3-ylethynyl)-9H-purin-9-yl)bicyclo[3.1.0]hexane-1-carboxamide], the inhibition at 10 µM at hA2AAR was 12 ± 6%. Further, the inhibition at 10 µM on hA1AR stood at 16 ± 10%. In test [1], the “Time of peak protection” value lay in the range of 0.5 to 2 h and the “Efficacy in reversing NP in vivo” value is on record as “low efficacy”.

As for `CNC(=O)[C@@]12C[C@@H]1[C@@H](n1cnc3c(NC)nc(C#CC4CCCCC4)nc31)[C@H](O)[C@@H]2O` [Compound 19, (1S,2R,3S,4R,5S)-4-(2-(Cyclohexylethynyl)-6-(methylamino)-9H-purin-9-yl)-2,3-dihydroxy-N-methylbicyclo[3.1.0]hexane-1-carboxamide], the inhibition at 10 µM at hA2AAR amounted to 45 ± 6%. Also, the inhibition at 10 µM on hA1AR is 15%. Besides, in test [1], the “Max. effect Emax (% ± SEM)” value is 64.1 ± 10.5%, the “Time of peak protection” value was 1 to 2 h and the “Efficacy in reversing NP in vivo” value is recorded as 60-70%.

As to `CNC(=O)[C@@]12C[C@@H]1[C@@H](n1cnc3c(NC)nc(C#CC4CC4)nc31)[C@H](O)[C@@H]2O` [Compound 20, (1S,2R,3S,4R,5S)-4-(2-(Cyclopropylethynyl)-6-(methylamino)-9H-purin-9-yl)-2,3-dihydroxy-N-methylbicyclo[3.1.0]hexane-1-carboxamide], the inhibition at 10 µM at hA2AAR turned out to be 15 ± 10%; at hA1AR, 38%. Also, the “Efficacy in reversing NP in vivo” value in test [1] was 60-70%.

Turning to `CNC(=O)[C@@]12C[C@@H]1[C@@H](n1cnc3c(NC)nc(C#Cc4cc(C)c(C)o4)nc31)[C@H](O)[C@@H]2O` [Compound 29, (1S,2R,3S,4R,5S)-4-(2-((4,5-Dimethylfuran-2-yl)ethynyl)-6-(methylamino)-9H-purin-9-yl)-2,3-dihydroxy-N-methylbicyclo[3.1.0]hexane-1-carboxamide], the values for the inhibition at 10 µM at hA2AAR and on hA1AR were 21 ± 3% and 15%, respectively. For the same molecule, in test [1], the “Time of peak protection” value is reported as 1 h.

`CNC(=O)[C@@]12C[C@@H]1[C@@H](n1cnc3c(NC)nc(C#Cc4ccc(CO)cc4)nc31)[C@H](O)[C@@H]2O` [Compound 31, (1S,2R,3S,4R,5S)-2,3-Dihydroxy-4-(2-((4-(hydroxymethyl)phenyl)ethynyl)-6-(methylamino)-9H-purin-9-yl)-N-methylbicyclo[3.1.0]hexane-1-carboxamide]: the inhibition at 10 µM was found to be 11 ± 7% at hA2AAR and 16% on hA1AR. In test [1], the “Time of peak protection” value is 1 h.

For the molecule `CNC(=O)[C@@]12C[C@@H]1[C@@H](n1cnc3c(NC)nc(C#Cc4cc5ccccc5o4)nc31)[C@H](O)[C@@H]2O` [Compound 33, (1S,2R,3S,4R,5S)-4-(2-(Benzofuran-2-ylethynyl)-6-(methylamino)-9H-purin-9-yl)-2,3-dihydroxy-N-methylbicyclo[3.1.0]hexane-1-carboxamide], the inhibition at 10 µM at hA2AAR was determined as 18 ± 3%. Moreover, on hA1AR, the inhibition at 10 µM came to 13%. In addition, in test [1], the “Max. effect Emax (% ± SEM)” value is reported as 87.4 ± 0.6% and the “Time of peak protection” value is listed as 1 h.

On hA2AAR, `CNC(=O)[C@]12CC1[C@@H](n1cnc3c(NC)nc(-n4cc(-c5ccc(F)c(F)c5)nn4)nc31)[C@H](O)C2O` (some centres unmarked) [Compound 102] gave a hA2AAR % inhibition of 39 ± 4%. In addition, in test [1], the “Effect at 3 h (% ± SEM)” value is given as 8 ± 8%, the “Max. effect Emax (% ± SEM)” value amounted to 55 ± 6% and the “Time of peak protection” value came out at 1 h.

In the case of `CNC(=O)[C@]12CC1[C@@H](n1cnc3c(NC)nc(N=[N+]=[N-])nc31)[C@H](O)C2O` (some centres unmarked) [Compound 113], the Ki at hA3AR was found to be 0.54 ± 0.1 nM. Besides, the hA2AAR % inhibition on hA2AAR turned out to be 1 ± 1%.

For the molecule `CNC(=O)[C@]12CC1[C@@H](n1cnc3c(NC)nc(I)nc31)[C@H](O)C2O` (some centres unmarked) [Compound 114], affinity at hA3AR was put at a Ki of 1.91 ± 0.85 nM.

`CNC(=O)[C@]12CC1[C@@H](n1cnc3c(NC4CCC4)nc(N=[N+]=[N-])nc31)[C@H](O)C2O` (some centres unmarked) [Compound 115]: affinity at hA3AR was put at a Ki of 0.85 ± 0.1 nM. The hA2AAR % inhibition on hA2AAR worked out at 46%.

`CNC(=O)[C@]12CC1[C@@H](n1cnc3c(NCc4cccc(Cl)c4)nc(I)nc31)[C@H](O)C2O` (some centres unmarked) [Compound 116] showed a Ki on hA2AAR of more than 10000 nM.

Regarding `CNC(=O)[C@]12CC1[C@@H](n1cnc3c(NC4CCC4)nc(I)nc31)[C@H](O)C2O` (some centres unmarked) [Compound 118], the figures for the Ki at hA3AR and on hA2AAR were 1.53 ± 0.45 nM and more than 10000 nM, respectively.

`CNC(=O)[C@]12CC1[C@@H](n1cnc3c(NCc4cccc(Cl)c4)nc(-n4cc(-c5ccc(Cl)s5)nn4)nc31)[C@H](O)C2O` (some centres unmarked) [Compound 120] returned a Ki on hA3AR of 11.7 nM. Besides, in test [1], the “Effect at 3 h (% ± SEM)” value is reported as 100%, the “Max. effect Emax (% ± SEM)” value came out at 100% and the “Time of peak protection” value was in the range of 0.5 to 4 h.

On hA3AR, `CCNc1nc(I)nc2c1ncn2[C@@H]1C2C[C@]2(C(=O)NC)C(O)[C@H]1O` (some centres unmarked) [Compound 122] had a Ki of 1.22 ± 0.21 nM. Moreover, the hA2AAR % inhibition at hA2AAR is reported as 11 ± 7%.

On to `CNC(=O)[C@]12CC1[C@@H](n1cnc3c(NC4CCC4)nc(-n4cc(-c5ccc(Cl)s5)nn4)nc31)[C@H](O)C2O` (some centres unmarked) [Compound 125], for which, at hA3AR, the inhibitory constant (Ki) was 7.13 nM. For the same molecule, in test [1], the “Effect at 3 h (% ± SEM)” value stood at 90%, the “Max. effect Emax (% ± SEM)” value is listed as 100% and the “Time of peak protection” value is 0.5 to 3 h.

As to `CNC(=O)[C@]12CC1[C@@H](n1cnc3c(NC)nc(C#Cc4ccccc4)nc31)[C@H](O)C2O` (some centres unmarked) [Compound 400, reference compound], on hA2AAR, the hA2AAR % inhibition entry is on record as “(14% ± 7%)”. Also, the hA1AR % inhibition entry on hA1AR is “(18% ± 8%)”. For the same molecule, in test [1], the “Effect at 3 h (% ± SEM)” value is recorded as 5.0 ± 5.0%, the “Max. effect Emax (% ± SEM)” value was 44.1 ± 9.9%, the “Time of peak protection” value was in the range of 0.5 to 1 h and the “Efficacy in reversing NP in vivo” value is approximately 30%.

In the case of `CNC(=O)[C@]12CC1[C@@H](n1cnc3c(NC)nc(C#Cc4ccccn4)nc31)[C@H](O)C2O` (some centres unmarked) [Compound 401, reference compound], the hA2AAR % inhibition entry on hA2AAR was “(13% ± 4%)”. The hA1AR % inhibition result on hA1AR is “(13% ± 8%)”. Also, the “Efficacy in reversing NP in vivo” value in test [1] is “low efficacy”.
